Test results reported in ChEMBL document CHEMBL2073898, “Overexpression of the BCRP/MXR/ABCP gene in a topotecan-selected ovarian tumor cell line” (Cancer Res, 1999).

Columns and labels:
[1] = target: T1, Broad substrate specificity ATP-binding cassette transporter ABCG2 (Homo sapiens, UniProt Q9UNQ0); test: TP_TRANSPORTER: intracellular concentration of the drug is lower compared with IGROV1 in MX3 cells; format: functional, cell-based
T1 sequence (Q9UNQ0 whole entry): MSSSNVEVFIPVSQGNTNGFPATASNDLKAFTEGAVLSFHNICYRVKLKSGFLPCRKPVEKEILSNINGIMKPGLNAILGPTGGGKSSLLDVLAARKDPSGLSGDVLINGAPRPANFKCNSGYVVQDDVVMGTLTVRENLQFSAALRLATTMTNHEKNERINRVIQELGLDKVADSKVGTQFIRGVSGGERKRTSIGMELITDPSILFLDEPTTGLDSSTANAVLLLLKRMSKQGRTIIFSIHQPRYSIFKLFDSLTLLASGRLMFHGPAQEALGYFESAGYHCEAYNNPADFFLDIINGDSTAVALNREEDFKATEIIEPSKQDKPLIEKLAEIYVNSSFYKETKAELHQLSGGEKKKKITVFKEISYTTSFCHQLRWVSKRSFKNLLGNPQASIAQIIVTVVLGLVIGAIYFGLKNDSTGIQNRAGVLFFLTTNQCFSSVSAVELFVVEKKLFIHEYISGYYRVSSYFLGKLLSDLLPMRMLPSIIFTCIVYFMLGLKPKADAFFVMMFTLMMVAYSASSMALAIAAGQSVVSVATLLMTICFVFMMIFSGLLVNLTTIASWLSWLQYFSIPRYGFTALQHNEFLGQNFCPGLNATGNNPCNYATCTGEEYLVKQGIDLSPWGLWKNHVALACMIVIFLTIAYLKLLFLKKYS

[2] = target: T1, Broad substrate specificity ATP-binding cassette transporter ABCG2; test: TP_TRANSPORTER: intracellular concentration of the drug is lower compared with IGROV1 in T8 cells; format: functional, cell-based

Activity [1]: substrate [+]
Activity [2]: substrate [+]
Compound: CC[C@@]1(O)C(=O)OCc2c1cc1n(c2=O)Cc2cc3c(CN(C)C)c(O)ccc3nc2-1 [TOPOTECAN]
